Measurements taken from US20240277795A1, “INHIBITORS OF CYSTEINE PROTEASES AND METHODS OF USE THEREOF” (Pardes Biosciences, Inc., priority 2021, published 2024).
Where two headings read alike, the source gives them in different places.

Columns and labels:
[1] = system: SARS-CoV-2 WT replicon in Huh7 cells; assay: microbe, parasite or virus in culture; type: cell-based; settings: Severe acute respiratory syndrome coronavirus 2, Huh-7, 24 h
OC43 Mpro = OC43 Mpro (Human coronavirus OC43, UniProt P0C6X6); assay: OC43 Mpro enzymatic assay; type: biochemical, HCoV OC43; settings: Table 3
Chain of OC43 Mpro (P0C6X6 3247-3549): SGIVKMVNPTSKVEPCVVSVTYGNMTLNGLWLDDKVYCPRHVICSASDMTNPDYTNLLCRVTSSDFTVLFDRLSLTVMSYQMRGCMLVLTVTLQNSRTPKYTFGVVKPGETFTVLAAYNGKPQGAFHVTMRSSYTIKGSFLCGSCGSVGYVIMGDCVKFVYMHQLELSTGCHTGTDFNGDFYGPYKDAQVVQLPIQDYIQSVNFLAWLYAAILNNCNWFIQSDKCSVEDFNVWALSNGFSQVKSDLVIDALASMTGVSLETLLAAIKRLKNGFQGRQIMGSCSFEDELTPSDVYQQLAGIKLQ

HCoV 229E = HCoV 229E cytopathic effect (CPE) assay; type: cell-based; settings: Table 4; CellTiter Glo; read-out: 229E CPE EC50
Procedure: (§1) Compounds were assayed using standard methods against multiple coronaviral strains, including HCoV 229E and OC43 strains. The antiviral activity of compounds was calculated based on the protection of the virus-induced CPE at each concentration normalized by the virus control.
(§2) Reagents and instruments used in this assay include luminescent cell viability assay kit CellTiter Glo (Promega) and Microplate Reader Synergy2 (BioTek).
Cytopathic effect (CPE) was measured by CellTiter Glo following the manufacturer's manual. The antiviral activity of compounds was calculated based on the protection of the virus-induced CPE at each concentration normalized by the virus control.
(§3) The cytotoxicity of compounds was assessed under the same conditions, but without virus infection, in parallel. Cell viability was measured with CellTiter Glo. The antiviral activity and cytotoxicity of compounds were expressed as % Inhibition and % Viability, respectively, and calculated with formulas.

HCov OC43 = assay: HCoV OC43 cytopathic effect (CPE) assay; type: cell-based; settings: Table 4, CellTiter Glo
Procedure: as §1, §2
Reference compound used was remdesivir; detection reagent: CellTiter Glo.) The CPE were measured by CellTiter Glo following the manufacturer's manual. The antiviral activity of compounds was calculated based on the protection of the virus-induced CPE at each concentration normalized by the virus control.
as §3

SARS-COV2 Mpro = SARS-COV2 Mpro (Severe acute respiratory syndrome coronavirus 2, UniProt P0DTD1); assay: COVID-19 (nCoV-2019, SARS-CoV2) Mpro enzymatic assay; type: biochemical
229E Mpro = 229E Mpro (Human coronavirus 229E, UniProt P0C6X1); assay: 229E Mpro enzymatic assay; type: biochemical, HCoV 229E; settings: Table 3
Chain of 229E Mpro (P0C6X1 2966-3267): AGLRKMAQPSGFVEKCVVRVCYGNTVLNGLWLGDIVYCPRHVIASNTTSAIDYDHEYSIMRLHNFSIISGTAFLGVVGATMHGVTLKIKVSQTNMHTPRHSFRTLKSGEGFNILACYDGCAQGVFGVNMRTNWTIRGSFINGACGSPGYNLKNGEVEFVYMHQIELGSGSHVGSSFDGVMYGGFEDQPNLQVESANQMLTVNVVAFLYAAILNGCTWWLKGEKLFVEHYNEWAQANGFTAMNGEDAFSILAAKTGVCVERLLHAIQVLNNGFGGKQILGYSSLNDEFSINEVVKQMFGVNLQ

Question: Which EC50 [1] does the source give for `C[C@@H](OC1CC1)[C@H](NC(=O)C(F)(F)F)C(=O)N1C[C@H]2[C@@H]([C@H]1C(=O)N[C@H](C#N)C[C@@H]1CCCNC1=O)C2(C)C` [Compound 378] here?
Answer: < 2000 nM

Question: How did the IC50 (OC43 Mpro) turn out when `Cc1cc(C(=O)N[C@@H](Cc2cccc3ccccc23)C(=O)N[C@@H](CC2CC2)C(=O)N[C@H](C#N)C[C@@H]2CCCNC2=O)no1` [Compound 111, N—((S)-1-(((S)-1-(((S)-1-cyano-2-((S)-2-oxopiperidin-3-yl)ethyl)amino)-3-cyclopropyl-1-oxopropan-2-yl)amino)-3-(naphthalen-1-yl)-1-oxopropan-2-yl)-5-methylisoxazole-3-carboxamide] was run?
Answer: < 2000 nM

Question: What about the EC50 (HCoV 229E) of the same molecule?
Answer: 10000 to 30000 nM

Question: What about the EC50 (HCov OC43; Betacoronavirus 1, OC43) of the same molecule?
Answer: 2000 to 10000 nM

Question: And the IC50 (SARS-COV2 Mpro)?
Answer: 2000 to 10000 nM

Question: And the IC50 (229E Mpro)?
Answer: < 2000 nM

Question: For `CC(C)(C)[C@H](NC(=O)c1cnccn1)C(=O)N1C[C@H]2[C@@H]([C@H]1C(=O)N[C@H](C#N)C[C@@H]1CCNC1=O)C2(C)C` (single isomer, unassigned) [101 Isomer 1], which IC50 (OC43 Mpro) is on record?
Answer: < 2000 nM

Question: What about the EC50 (HCoV 229E) of the same molecule?
Answer: 2000 to 10000 nM

Question: What about the EC50 (HCov OC43; Betacoronavirus 1, OC43) of the same molecule?
Answer: < 2000 nM

Question: And the IC50 (SARS-COV2 Mpro)?
Answer: < 2000 nM

Question: What about the IC50 (229E Mpro) of the same molecule?
Answer: < 2000 nM

Question: With `CC1(C)[C@@H]2[C@@H](C(=O)N[C@H](C#N)C[C@@H]3CCCNC3=O)N(C(=O)[C@@H](NC(=O)C(F)(F)F)C3CC3)C[C@@H]21` [Compound 377] as the molecule, how does the EC50 [1] read?
Answer: < 2000 nM

Question: How did the IC50 (OC43 Mpro) turn out when `CC1(C)C[C@@H](C[C@@H](C#N)NC(=O)[C@H](CC2CC2)NC(=O)[C@H](Cc2cccc3ccccc23)NC(=O)c2cnccn2)C(=O)N1` [Compound 118, N—((S)-1-(((S)-1-(((S)-1-cyano-2-((R)-5,5-dimethyl-2-oxopyrrolidin-3-yl)ethyl)amino)-3-cyclopropyl-1-oxopropan-2-yl)amino)-3-(naphthalen-1-yl)-1-oxopropan-2-yl)pyrazine-2-carboxamide] was run?
Answer: < 2000 nM

Question: And the EC50 (HCoV 229E)?
Answer: 2000 to 10000 nM

Question: What about the EC50 (HCov OC43; Betacoronavirus 1, OC43) of the same molecule?
Answer: 2000 to 10000 nM

Question: What about the IC50 (SARS-COV2 Mpro) of the same molecule?
Answer: 2000 to 10000 nM

Question: What about the IC50 (229E Mpro) of the same molecule?
Answer: < 2000 nM

Question: `C[C@@H](OC1(C)CCC1)[C@H](NC(=O)C(F)(F)F)C(=O)N1C[C@H]2[C@@H]([C@H]1C(=O)N[C@H](C#N)C[C@@H]1CCCNC1=O)C2(C)C` [Compound 376] was tested. Which EC50 [1] did it give?
Answer: < 2000 nM

Question: With `Cc1cc(C(=O)N[C@@H](Cc2ccc(F)cc2)C(=O)N[C@@H](CC(C)C)C(=O)N[C@H](C#N)C[C@@H]2CCCNC2=O)no1` [Compound 113, N—((S)-1-(((S)-1-(((S)-1-cyano-2-((S)-2-oxopiperidin-3-yl)ethyl)amino)-4-methyl-1-oxopentan-2-yl)amino)-3-(4-tluorophenyl)-1-oxopropan-2-yl)-5-methylisoxazole-3-carboxamide] as the molecule, how does the IC50 (OC43 Mpro) read?
Answer: < 2000 nM

Question: What about the EC50 (HCoV 229E) of the same molecule?
Answer: 2000 to 10000 nM

Question: What about the EC50 (HCov OC43; Betacoronavirus 1, OC43) of the same molecule?
Answer: 2000 to 10000 nM

Question: What about the IC50 (SARS-COV2 Mpro) of the same molecule?
Answer: < 2000 nM

Question: What about the IC50 (229E Mpro) of the same molecule?
Answer: < 2000 nM

Question: Which results are given for `N#C[C@H](C[C@@H]1CCNC1=O)NC(=O)C(CC1CCC(F)(F)CC1)NC(=O)[C@H](Cc1cccc2ccccc12)NC(=O)OCc1ccccc1` (stereo partly drawn) [Compound 128, benzylN-[(1S)-2-[[2-[[(1S)-1-cyano-2-[(3S)-2-oxopyrrolidin-3-yl]ethyl]amino]-1-[(4,4-difluorocyclohexyl)methyl]-2-oxo-ethyl]amino]-1-(1-naphthylmethyl)-2-oxo-ethyl]carbamate]?
Answer: IC50 (OC43 Mpro): < 2000 nM; EC50 (HCoV 229E): < 2000 nM; EC50 (HCov OC43; Betacoronavirus 1, OC43): < 2000 nM; IC50 (SARS-COV2 Mpro): < 2000 nM; IC50 (229E Mpro): < 2000 nM

Question: Which results are given for `N#C[C@H](C[C@@H]1CCCNC1=O)NC(=O)[C@H](CC1CC1)NC(=O)[C@H](Cc1cccc2ccccc12)NC(=O)OCc1ccccc1` [Compound 116, Benzyl((S)-1-(((S)-1-(((S)-1-cyano-2-((S)-2-oxopiperidin-3-yl)ethyl)amino)-3-cyclopropyl-1-oxopropan-2-yl)amino)-3-(naphthalen-1-yl)-1-oxopropan-2-yl)carbamate]?
Answer: IC50 (OC43 Mpro): < 2000 nM; EC50 (HCoV 229E): 2000 to 10000 nM; EC50 (HCov OC43; Betacoronavirus 1, OC43): < 2000 nM; IC50 (SARS-COV2 Mpro): < 2000 nM; IC50 (229E Mpro): < 2000 nM

Question: Which IC50 (OC43 Mpro) does the source give for `Cc1cc(C(=O)N[C@@H](Cc2cccc3ccccc23)C(=O)N[C@@H](CC2CC2)C(=O)N[C@H](C#N)C[C@@H]2CCNC2=O)no1` [Compound 121, N—((S)-1-(((S)-1-(((S)-1-cyano-2-((S)-2-oxopyrrolidin-3-yl)ethyl)amino)-3-cyclopropyl-1-oxopropan-2-yl)amino)-3-(naphthalen-1-yl)-1-oxopropan-2-yl)-5-methylisoxazole-3-carboxamide] here?
Answer: < 2000 nM

Question: And the EC50 (HCoV 229E)?
Answer: 2000 to 10000 nM

Question: And the EC50 (HCov OC43; Betacoronavirus 1, OC43)?
Answer: 2000 to 10000 nM

Question: And the IC50 (SARS-COV2 Mpro)?
Answer: 2000 to 10000 nM

Question: And the IC50 (229E Mpro)?
Answer: < 2000 nM

Question: Which IC50 (OC43 Mpro) does the source give for `N#C[C@H](C[C@@H]1CCNC1=O)NC(=O)[C@H](CC1CC1)NC(=O)[C@H](Cc1cccc2ccccc12)NC(=O)c1cnccn1` [Compound 119, N—((S)-1-(((S)-1-(((S)-1-cyano-2-((S)-2-oxopyrrolidin-3-yl)ethyl)amino)-3-cyclopropyl-1-oxopropan-2-yl)amino)-3-(naphthalen-1-yl)-1-oxopropan-2-yl)pyrazine-2-carboxamide] here?
Answer: < 2000 nM

Question: And the EC50 (HCoV 229E)?
Answer: 10000 to 30000 nM

Question: And the EC50 (HCov OC43; Betacoronavirus 1, OC43)?
Answer: 2000 to 10000 nM

Question: What about the IC50 (SARS-COV2 Mpro) of the same molecule?
Answer: 2000 to 10000 nM

Question: What about the IC50 (229E Mpro) of the same molecule?
Answer: < 2000 nM

Question: How did the IC50 (OC43 Mpro) turn out when `N#C[C@H](C[C@@H]1CCCNC1=O)NC(=O)[C@H](CC1CC1)NC(=O)[C@H](Cc1cccc2ccccc12)NC(=O)c1cnccn1` [Compound 115, N—((S)-1-(((S)-1-(((S)-1-cyano-2-((S)-2-oxopiperidin-3-yl)ethyl)amino)-3-cyclopropyl-1-oxopropan-2-yl)amino)-3-(naphthalen-1-yl)-1-oxopropan-2-yl)pyrazine-2-carboxamide] was run?
Answer: < 2000 nM

Question: What about the EC50 (HCoV 229E) of the same molecule?
Answer: 2000 to 10000 nM

Question: What about the EC50 (HCov OC43; Betacoronavirus 1, OC43) of the same molecule?
Answer: 2000 to 10000 nM

Question: What about the IC50 (SARS-COV2 Mpro) of the same molecule?
Answer: 2000 to 10000 nM

Question: And the IC50 (229E Mpro)?
Answer: < 2000 nM

Question: What does the source list for `CC(C)(C)[C@H](NC(=O)c1cnccn1)C(=O)N1C[C@H]2[C@@H]([C@H]1C(=O)N[C@H](C#N)C[C@@H]1CCNC1=O)C2(C)C` (single isomer, unassigned) [101 Isomer 2]?
Answer: IC50 (OC43 Mpro): < 2000 nM; EC50 (HCoV 229E): 2000 to 10000 nM; EC50 (HCov OC43): < 2000 nM; IC50 (SARS-COV2 Mpro; read-out: COVID-19 Mpro IC50, Table 3): < 2000 nM; IC50 (229E Mpro): < 2000 nM

Question: How did the IC50 (OC43 Mpro) turn out when `Cc1cc(C(=O)N[C@@H](Cc2cccc3ccccc23)C(=O)N[C@@H](CC2CC2)C(=O)N[C@H](C#N)C[C@@H]2CC(C)(C)NC2=O)no1` [Compound 120, N—((S)-1-(((S)-1-(((S)-1-cyano-2-((R)-5,5-dimethyl-2-oxopyrrolidin-3-yl)ethyl)amino)-3-cyclopropyl-1-oxopropan-2-yl)amino)-3-(naphthalen-1-yl)-1-oxopropan-2-yl)-5-methylisoxazole-3-carboxamide] was run?
Answer: < 2000 nM

Question: What about the EC50 (HCoV 229E) of the same molecule?
Answer: 2000 to 10000 nM

Question: And the EC50 (HCov OC43; Betacoronavirus 1, OC43)?
Answer: < 2000 nM

Question: And the IC50 (SARS-COV2 Mpro)?
Answer: 2000 to 10000 nM

Question: What about the IC50 (229E Mpro) of the same molecule?
Answer: < 2000 nM
